In ChEMBL document CHEMBL3044857, “Benzimidazole: a medicinally important heterocyclic moiety” (Med Chem Res, 2012):
Values after ≈ are worked out from the molar mass of the structure shown.

Assays:
[1] = test system: HT-29; experiment: Cytotoxicity against Homo sapiens (human) HT-29 cells by Alamar blue assay; format: functional, cell-based
[2] = test system: HL-60; experiment: Cytotoxicity against Homo sapiens (human) HL60 cells by Alamar blue assay; format: functional, cell-based
[3] = test system: PC-3; experiment: Cytotoxicity against Homo sapiens (human) PC3 cells by Alamar blue assay; format: functional, cell-based
[4] = test system: MCF7; experiment: Cytotoxicity against Homo sapiens (human) MCF7 cells by Alamar blue assay; format: functional, cell-based
[5] = test system: Plasmodium falciparum; experiment: Antimicrobial activity against Plasmodium falciparum; format: functional, organism-based
[6] = test system: Candida; experiment: Antimicrobial activity against Candida; format: functional
[7] = test system: Respiratory syncytial virus; experiment: Ratio of ribavirin EC50 to compound EC50 for Respiratory syncytial virus infected cell system assessed as inhibition of viral replication; format: functional
[8] = test system: Respiratory syncytial virus; experiment: Antiviral activity against Respiratory syncytial virus infected cell system assessed as inhibition of viral replication; format: functional, organism-based; conditions: human respiratory syncytial virus
[9] = Inhibition of GABA-A receptor benzodiazepine site (unknown origin); parameters: species or system Homo sapiens
[10] = test system: Giardia intestinalis; experiment: Antimicrobial activity against Giardia intestinalis; format: functional, organism-based; conditions: Giardia duodenalis
[11] = test system: Trichomonas vaginalis; experiment: Antimicrobial activity against Trichomonas vaginalis; format: functional, organism-based
[12] = target: Casein kinase 2 (Rattus norvegicus, UniProt P19139); experiment: Inhibition of Rattus norvegicus (rat) liver cytosolic CK2
Sequence of Casein kinase 2 (P67874 whole entry): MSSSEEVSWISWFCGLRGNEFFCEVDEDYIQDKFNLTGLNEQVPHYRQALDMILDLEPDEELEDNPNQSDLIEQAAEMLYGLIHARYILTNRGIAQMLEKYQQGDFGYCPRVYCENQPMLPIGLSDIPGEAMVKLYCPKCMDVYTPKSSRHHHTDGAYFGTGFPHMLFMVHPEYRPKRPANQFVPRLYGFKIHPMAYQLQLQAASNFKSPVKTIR
Sequence of Casein kinase 2 (P19139 whole entry): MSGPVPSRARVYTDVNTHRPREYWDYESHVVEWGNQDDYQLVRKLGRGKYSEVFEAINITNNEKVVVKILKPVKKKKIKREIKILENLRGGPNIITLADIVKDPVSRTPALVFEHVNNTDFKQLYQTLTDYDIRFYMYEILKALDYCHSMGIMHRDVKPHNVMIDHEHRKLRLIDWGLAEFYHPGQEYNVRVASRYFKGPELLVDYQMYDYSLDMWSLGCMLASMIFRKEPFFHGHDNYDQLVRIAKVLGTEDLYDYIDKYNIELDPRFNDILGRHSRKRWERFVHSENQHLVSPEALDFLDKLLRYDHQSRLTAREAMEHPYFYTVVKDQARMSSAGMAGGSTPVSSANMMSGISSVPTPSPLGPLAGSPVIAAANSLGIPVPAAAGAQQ

[13] = target: T1, Progesterone receptor (Homo sapiens, UniProt P06401); experiment: Binding affinity to Homo sapiens (human) progesterone receptor
T1 sequence (P06401 whole entry): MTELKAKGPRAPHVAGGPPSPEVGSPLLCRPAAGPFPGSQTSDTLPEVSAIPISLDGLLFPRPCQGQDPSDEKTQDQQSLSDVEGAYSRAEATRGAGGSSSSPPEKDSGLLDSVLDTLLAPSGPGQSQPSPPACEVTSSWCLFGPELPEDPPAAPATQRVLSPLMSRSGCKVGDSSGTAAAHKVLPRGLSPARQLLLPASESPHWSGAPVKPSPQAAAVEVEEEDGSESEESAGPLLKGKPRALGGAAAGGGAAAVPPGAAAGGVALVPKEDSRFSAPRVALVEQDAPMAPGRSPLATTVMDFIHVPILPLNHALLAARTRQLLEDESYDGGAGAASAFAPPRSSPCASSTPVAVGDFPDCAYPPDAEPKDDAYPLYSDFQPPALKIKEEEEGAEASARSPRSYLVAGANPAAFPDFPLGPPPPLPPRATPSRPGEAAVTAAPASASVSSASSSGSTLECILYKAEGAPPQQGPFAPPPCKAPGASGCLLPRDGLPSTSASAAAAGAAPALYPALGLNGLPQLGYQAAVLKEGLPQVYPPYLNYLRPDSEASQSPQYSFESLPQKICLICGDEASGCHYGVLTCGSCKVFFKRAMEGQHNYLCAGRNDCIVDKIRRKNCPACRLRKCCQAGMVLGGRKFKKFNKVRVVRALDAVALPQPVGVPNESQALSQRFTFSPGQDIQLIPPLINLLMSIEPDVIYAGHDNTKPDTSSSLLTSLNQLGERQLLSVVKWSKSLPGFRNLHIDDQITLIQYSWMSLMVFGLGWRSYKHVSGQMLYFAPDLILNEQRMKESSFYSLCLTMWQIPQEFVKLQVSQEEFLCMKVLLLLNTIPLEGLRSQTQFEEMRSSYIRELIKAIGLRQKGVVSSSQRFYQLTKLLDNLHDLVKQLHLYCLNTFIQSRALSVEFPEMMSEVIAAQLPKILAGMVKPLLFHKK

[14] = test system: Aorta; experiment: Vasorelaxant activity in Rattus norvegicus (rat) aortic rings; format: functional, tissue-based
[15] = test system: Aorta; experiment: Vasorelaxant activity in endothelium-denuded Rattus norvegicus (rat) aortic rings; format: functional, tissue-based

O=C(O)c1cccc2[nH]c(-c3cccc4oc(-c5ccccc5O)nc34)nc12
IC50 [1]: 7 µM
IC50 [2]: 7 µM
IC50 [3]: 7 µM
IC50 [4]: 7 µM

N=C(N)c1ccc(-c2ccc(O)c(-c3nc4ccc(C(=N)N)cc4[nH]3)c2)cc1
IC50 [5]: 0.0021 µM

CCCCn1c(-c2ccc(F)cc2)nc2cc(C#N)ccc21
MIC [6]: 3130 ng/mL (≈ 10.7 µM)

Cc1ccc(O)c(Cn2c(NC3CCN(CCN)CC3)nc3c(C)cccc32)n1 [JNJ 2408068]
Ratio EC50 [7]: 100000
EC50 [8]: 0.00016 µM

CCOCN1C2=C(C(=O)Nc3ccccc3F)C(=O)CCN2c2ccc(F)cc21
IC50 [9]: 0.0001 µM

Sc1nc2c(Br)cc(Br)cc2[nH]1
IC50 [10]: 6 ng/mL (≈ 0.0195 µM)
IC50 [11]: 1.5 ng/mL (≈ 0.00487 µM)

FC(F)(F)c1nc2c(Br)c(Br)c(Br)c(Br)c2[nH]1
Ki [12]: 0.6 µM

Sc1nc2ccc(-n3ccnc3)cc2n1C1CCCC1
Ki [13]: 0.028 µM

O=[N+]([O-])c1ccc2nc(-c3ccccc3O)[nH]c2c1
IC50 [14]: 0.95 µM
IC50 [15]: 2.01 µM

NC(=O)c1ncn([C@@H]2O[C@H](CO)[C@@H](O)[C@H]2O)n1 [RIBAVIRIN]
EC50 [8]: 15 µM

COc1ccc(-c2nc3cc([N+](=O)[O-])ccc3[nH]2)cc1
IC50 [14]: 1.41 µM
IC50 [15]: 3.61 µM
